Experimental findings from ChEMBL document CHEMBL1143474, “Synthesis and pharmacological evaluation of Tic-hydantoin derivatives as selective sigma1 ligands. Part 1” (Bioorg Med Chem Lett, 2005) are described below.

One assay has as its target Sigma 2 receptor. As to the kind of experiment: Inhibitory concentration against opioid receptor sigma 2 of rat cerebral cortex using [3H]DTG upon incubation for 120 minutes at 22 degree C. Type of assay: tissue-based.
The target in assay [1] is Sigma non-opioid intracellular receptor 1 (Cavia porcellus) (UniProt Q60492). In words: Inhibitory concentration against opioid receptor sigma 1 of guinea pig cerebral cortex using [3H](+)-pentazocine upon incubation for 150 minutes at 22 degree C.
Sigma non-opioid intracellular receptor 1 (Cavia porcellus), sequence (Q60492 whole entry, looked up): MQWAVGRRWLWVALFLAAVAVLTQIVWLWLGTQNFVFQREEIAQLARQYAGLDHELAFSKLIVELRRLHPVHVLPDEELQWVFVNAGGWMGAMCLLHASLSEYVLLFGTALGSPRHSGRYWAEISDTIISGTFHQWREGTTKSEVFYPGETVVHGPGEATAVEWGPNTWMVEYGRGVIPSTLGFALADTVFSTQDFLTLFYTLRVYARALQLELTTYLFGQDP

Usually IC50 stands for the concentration needed to halve the response being measured. Read a high IC50 as lower potency. Regarding `O=C1[C@H]2Cc3ccccc3CN2C(=O)N1CCN1CCCCC1`, the IC50 against Sigma 2 receptor is above 1000 nM.

At Sigma 2 receptor, `c1ccc2c(c1)C[C@H]1CN(CCN3CCCCC3)CN1C2` showed an IC50 above 1000 nM.

`O=C1N(CCN2CCCCC2)C[C@@H]2Cc3ccccc3CN12` registered an IC50 on Sigma 2 receptor above 1000 nM.

On Sigma 2 receptor, `O=C1[C@@H]2Cc3ccccc3N2C(=O)N1CCCN1CCCCC1` gave an IC50 above 1000 nM.

As to `O=C1[C@@H]2Cc3ccccc3CN2C(=O)N1CCN1CCCCC1`, the IC50 in assay [1] was 16 nM; against Sigma 2 receptor, above 1000 nM.

Regarding `O=C1[C@@H]2Cc3ccccc3CN2C(=S)N1CCN1CCCCC1`, the IC50 against Sigma 2 receptor is 507 nM.

As to `O=C1[C@@H]2Cc3ccccc3CN2C(=O)N1CCCN1CCCCC1`, the IC50 in assay [1] is 21.5 nM; at Sigma 2 receptor, above 1000 nM.
